Test results from patent US20020183384A1, “Methods of treating nuclear factor-kappa B mediated diseases and disorders” (priority 2001, published 2002).
Counter-ions that a name gives are not always drawn.

What follows are compounds tested on NF-κB mediated transcription (assay: NF-κB driven β-lactamase reporter assay in ECV-304 NF-κB.βlaZ cells (AURORA CCF2 fluorescence)). Conditions: 10 μM compound; ECV-304 NF-κB.βlaZ cells stimulated with 10 ng/mL TNF-α or 100 pg/mL IL-1β, 6 hours at 37° C.; inhibition of maximum blue/green ratio.
Type: cell-based, human
Outline: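 Blue/green (460/530 nm, excitation 395 nm) CCF2 emission ratio quantified NF-κB-driven β-lactamase expression in the stably transfected endothelial-like ECV-304 clone 1E8.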

Structure (SMILES) | Percent Inhibition at 10 μM [%]
CC(C)c1cccc(C(C)C)c1OS(=O)(=O)NC(=O)NCC1(c2ccc(N(C)C)cc2)CCCC1 [Example 217, Sulfamic acid, [[[[1-[4-(dimethylamino)phenyl]cyclopenty]methyl]-amino]carbonyl]-2,6-bis(1-methylethyl)phenyl ester] | 37.08
CC(C)c1cccc(C(C)C)c1OS(=O)(=O)NC(=O)OCC(COC(=O)NS(=O)(=O)Oc1c(C(C)C)cccc1C(C)C)OC(=O)NS(=O)(=O)Oc1c(C(C)C)cccc1C(C)C [Example 112, Carbamic acid, [[2,6-bis(1-methylethyl)phenoxy]sulfonyl]-, 1,2,3-propanetriyl ester] | <10

Same assay, conditions: 10 μM compound; ECV-304 NF-κB.βlaZ cells stimulated with 10 ng/mL TNF-α or 100 pg/mL IL-1β, 6 hours at 37° C.; inhibition of maximum blue/green ratio; 10 µM

Structure (SMILES) | Percent Inhibition at 10 μM [%]
CCCCCCCCCCCCOC(=O)NS(=O)(=O)Nc1c(C(C)C)cccc1C(C)C [Example 250, Carbamic acid, [[[2,6-bis(1-methylethyl)phenyl]amino]sulfonyl]-, dodecyl ester] | <10
CCCCCCCCCCCCOC(=O)NS(=O)(=O)Nc1c(C(C)C)cccc1C(C)C [Example 53, Carbamic acid, [[[2,6-bis(1-methylethyl)phenyl]amino]sulfonyl]-, dodecyl ester] | 61.31

Same assay, conditions: Homo sapiens, ECV-304, 6 h, 10 μM compound; ECV-304 NF-κB.βlaZ cells stimulated with 10 ng/mL TNF-α or 100 pg/mL IL-1β, 6 hours at 37° C.; inhibition of maximum blue/green ratio; read-out: Percent Inhibition at 10 μM

Structure (SMILES) | inhibition at 10 µM [%]
CCC(C(=O)NS(=O)(=O)Oc1c(C(C)C)cccc1C(C)C)c1ccccc1 (centres unmarked) [Example 169, (2-Phenyl-butyryl)-sulfamic acid 2,6-diisopropyl-phenyl ester] | 21.3
CCCCCCCCCCCCOC(=O)NS(=O)(=O)Oc1c(C(C)C)cccc1C(C)C [Example 55, Carbamic acid, [[2,6-bis(1-methylethyl)phenoxy]sulfonyl]-, dodecyl ester] | 55.1
CC(C)c1cc(C(C)C)c(CC(=O)NS(=O)(=O)Oc2c(Cl)cccc2Cl)c(C(C)C)c1 [Example 193, [(2,4,6-Triisopropyl-phenyl)-acetyl]-sulfamic acid 2,6-dichloro-phenyl ester] | 38.3
CC(C)c1cccc(C(C)C)c1OS(=O)(=O)NC(=O)C(C)c1ccccc1 (centres unmarked) [Example 159, (2-Phenyl-propionyl)-sulfamic acid 2,6-diisopropyl-phenyl ester] | 10.1
CC(C)c1cccc(C(C)C)c1OS(=O)(=O)NC(=O)OC1CCCCC1 [Example 133, Carbamic acid, [[2,6-bis(1-methylethyl)phenoxy]sulfonyl]-, cyclohexyl ester] | < 10
CCC(C)N(C(C)CC)S(=O)(=O)NC(=O)Nc1c(C(C)C)cccc1C(C)C (centres unmarked) [Example 83, Urea, N-[2,6-bis(1-methylethyl)phenyl]-N′-[[bis(1-methylpropyl)-amino]-sulfonyl]-] | 10.6
CCCCCCN(CCCCCC)S(=O)(=O)NC(=O)Nc1c(C(C)C)cccc1C(C)C [Example 36, N-[2,6-bis(1-methylethyl)phenyl]-N′-[(dihexylamino)sulfonyl]-urea] | 51.2
CC(C)c1cccc(C(C)C)c1OS(=O)(=O)NC(=O)C1CC1c1ccccc1 (centres unmarked) [Example 144, (2-Phenyl-cyclopropanecarbonyl)-sulfamic acid 2,6-diisopropyl-phenyl ester] | 16.2
CCCCCCCCC(C)S(=O)(=O)NC(=O)Nc1c(C(C)C)cccc1C(C)C (centres unmarked) [Example 244, N-[2,6-bis(1-methylethyl)phenyl]-N′-(2-decylsulfonyl)urea] | < 10
CCCCCCCCC(c1ccccc1)S(=O)(=O)NC(=O)Nc1c(C(C)C)cccc1C(C)C (centres unmarked) [Example 243, N-[2,6-bis(1-methylethyl)phenyl]-N′-(1-phenyl-1-nonylsulfonyl)urea] | < 10
CC(C)c1cc(C(C)C)c(CC(=O)NS(=O)(=O)Oc2c(C(C)C)cc(NC(=O)CNC(=O)OC(C)(C)C)cc2C(C)C)c(C(C)C)c1 [Example 198, [(3,5-Diisopropyl-4-{[(2,4,6-triisopropyl-phenyl)-acetyl]sulfamoyloxy}-phenylcarbamoyl)-methyl]-carbamic acid tert-butyl ester] | 75.8
CC(C)c1cc(C(C)C)c(CC(=O)NS(=O)(=O)Oc2c(C(C)C)cc(O)cc2C(C)C)c(C(C)C)c1 [Example 180, [(2,4,6-Triisopropyl-phenyl)-acetyl]-sulfamic acid 4-hydroxy-2,6-diisopropyl-phenyl ester] | 92
CC(C)c1cc(C(C)C)c(CC(=O)NS(=O)(=O)Oc2c(C(C)C)cc(N)cc2C(C)C)c(C(C)C)c1 [Example 187, [(2,4,6-Triisopropyl-phenyl)-acetyl]-sulfamic acid 4-amino-2,6-diisopropyl-phenyl ester] | 57.8
C=CCN(CC)S(=O)(=O)NC(=O)Nc1c(C(C)C)cccc1C(C)C [Example 73, Urea, N-[2,6-bis(1-methylethyl)phenyl]-N′-[[ethyl(2-propenyl)amino]-sulfonyl]-] | < 10
CCCCCCCCN(C)S(=O)(=O)NC(=O)Nc1c(C(C)C)cccc1C(C)C [Example 45, Urea, N-[2,6-bis(1-methylethyl)phenyl]-N′-[(methyloctylamino)sulfonyl]-] | 53.5
CC(C)c1cc(C(C)C)c(CC(=O)NS(=O)(=O)Oc2c(C(C)C)cc(SC#N)cc2C(C)C)c(C(C)C)c1 [Example 209, [(2,4,6-Triisopropyl-phenyl)-acetyl]-sulfamic acid 2,6-diisopropyl-4-thiocyanato-phenyl ester] | 56.8

Same assay, conditions: Homo sapiens; 10 μM compound; ECV-304 NF-κB.βlaZ cells stimulated with 10 ng/mL TNF-α or 100 pg/mL IL-1β, 6 hours at 37° C.; inhibition of maximum blue/green ratio; read-out: Percent Inhibition at 10 μM

Structure (SMILES) | inhibition at 10 µM [%]
CC(C)c1cc(Cl)cc(C(C)C)c1OC(=O)NS(=O)(=O)Oc1c(C(C)C)cccc1C(C)C [Example 117, Carbamic acid, [[2,6-bis(1-methylethyl)phenoxy]sulfonyl]-, 4-chloro-2,6-bis(1-methylethyl)phenyl ester] | < 10
COc1cccc(OC)c1OC(=O)NS(=O)(=O)Oc1c(C(C)C)cccc1C(C)C [Example 108, Carbamic acid, [[2,6-bis(1-methylethyl)phenoxy]sulfonyl]-, 2,6-dimethoxyphenyl ester] | < 10
CC(C)c1cccc(C(C)C)c1OC(=O)NS(=O)(=O)N1CCCCC1 [Example 59, Carbamic acid, (1-piperidinylsulfonyl)-, 2,6-bis(1-methylethyl)phenyl ester] | < 10
CC(C)c1ccc(OC(=O)NS(=O)(=O)Oc2c(C(C)C)cccc2C(C)C)c(C(C)C)c1 [Example 129, Carbamic acid, [[2,6-bis(1-methylethyl)phenoxy]sulfonyl]-, 2,4-bis(1-methylethyl)phenyl ester] | < 10
CC(C)c1cccc(C(C)C)c1OC(=O)NS(=O)(=O)N(Cc1ccccc1)Cc1ccccc1 [Example 25, Carbamic acid, [[bis(phenylmethyl)amino]sulfonyl]-, 2,6-bis(1-methylethyl)-phenyl ester] | 33.2
CC(C)c1cccc(C(C)C)c1OC(=O)NS(=O)(=O)Nc1ccccc1 [Example 13, Carbamic acid, [(phenylamino)sulfonyl]-, 2,6-bis(1-methylethyl)phenyl ester] | < 10
CC(C)c1cccc(C(C)C)c1OC(=O)NS(=O)(=O)N(c1ccccc1)c1ccccc1 [Example 26, Carbamic acid, [(diphenylamino)sulfonyl]-, 2,6-bis(1-methylethyl)phenyl ester] | 32.8
CCCCCN(CCCCC)S(=O)(=O)NC(=O)Oc1c(C(C)(C)C)cc(C)cc1C(C)(C)C [Example 31, Carbamic acid, [(dipentylamino)sulfonyl]-, 2,6-bis(1,1-dimethylethyl)-4-methylphenyl ester] | 74
Cc1cc(C(C)(C)C)c(OC(=O)NS(=O)(=O)N(C)CCc2ccccc2)c(C(C)(C)C)c1 [Example 38, Carbamic acid, [[methyl(2-phenylethyl)amino]sulfonyl]-, 2,6-bis(1,1-dimethylethyl)-4-methylphenyl ester] | 31.5
CC(C)c1cccc(C(C)C)c1OS(=O)(=O)NC(=O)Oc1c(C(C)(C)C)cccc1C(C)(C)C [Example 91, Carbamic acid, [[2,6-bis(1-methylethyl)phenoxy]sulfonyl]-, 2,6-bis(1,1-dimethylethyl)phenyl ester] | 39.7
Cc1cc(C(C)(C)C)c(OC(=O)NS(=O)(=O)N(C)CCc2ccccn2)c(C(C)(C)C)c1 [Example 42, Carbamic acid, [[methyl[2-(2-pyridinyl)ethyl]amino]sulfonyl]-, 2,6-bis(1,1-dimethylethyl)-4-methylphenyl ester, monohydrochloride] | < 10
Cc1cc(C)c(C)c(OC(=O)NS(=O)(=O)Oc2c(C(C)C)cccc2C(C)C)c1C [Example 166, Carbamic acid, [[2,6-bis(1-methylethyl)phenoxy]sulfonyl]-, 2,3,5,6-tetramethylphenyl ester] | < 10
CCCCCCNS(=O)(=O)NC(=O)Oc1c(C(C)(C)C)cc(C)cc1C(C)(C)C [Example 34, Carbamic acid, [(hexylamino)sulfonyl]-, 2,6-bis(1,1-dimethylethyl)-4-methylphenyl ester] | 24.3
CC(C)(C)c1cc(O)cc(C(C)(C)C)c1OC(=O)NS(=O)(=O)Nc1ccccc1 [Example 14, Carbamic acid, [(phenylamino)sulfonyl]-, 2,6-bis(1,1-dimethylethyl)-4-hydroxyphenyl ester] | 13.8
CC(C)c1cc(C(C)C)c(OS(=O)(=O)NC(=O)Oc2c(C(C)C)cccc2C(C)C)c(C(C)C)c1 [Example 125, Carbamic acid, [[2,4,6-tris(1-methylethyl)phenoxy]sulfonyl]-, 2,6-bis(1-methylethyl)phenyl ester] | 11
